Results published in patent US20080274121A1, “Inhibition of Angiogenesis by Mithramycin” (priority 2007, published 2008).

What was measured:
[1] = H727 carcinoid subcutaneous xenograft; settings: BVZ; abstract does not name the model
Description: (§1) H727 carcinoid tumor volume during treatment course in nude mouse xenograft model for various doses and administration routes of mithramycin.
(§2) H727 and BON-1 cells were injected into the subcutis of nude mice (n=5). When tumors reached around 4 mm in diameter, the animals received different doses of MIT (0.10 [M-10], 0.20 [M-20], and 0.40 [M-40] mg/kg) via intraperitoneal injection twice a week. Tumors were measured once every week, and at each measurement, the mean±standard deviation (SD) tumor volume in the five mice in each group was calculated (A). […] This was one representative experiment of two with similar results.
(§3) H727 and BON-1 cells were injected subcutaneously into nude mice. […] A. Tumors were measured once every week, and at each measurement, the mean±SD tumor volume in the five mice in each group was calculated. B. Mouse body weights were measured. The asterisks indicate the statistical significance (P<0.01) in a comparison between the treated and respective control groups. This was one representative experiment of two with similar results.
(§4) H727 carcinoid cells were injected into the subcutis of groups of mice (n=5). When tumors reached 4 mm in diameter, animals received injections of PBS (controls), MIT (0.10, 0.20, or 0.40 mg/kg (s.c. or i.p.) twice a week. Tumors were measured once every week, and at each measurement, the mean±SD tumor volume in the five mice in each group was calculated.
(§5) Mithramycin-A (MIT, 1 mg/vial crystal powder; lot 055K4011) was purchased from Sigma Chemical Co. (St. Louis, Mo.) and diluted in sterile water. BVZ (25 mg/ml; NDC 50242-060-01) from Genentech, Inc. (South San Francisco, Calif.) was purchased. For animal experiments, MIT (0.1 to 0.4 mg/kg body weight) and BVZ (25 to 100 μg/mouse) were administered by intraperitoneal or subcutaneous injections twice a week or as otherwise stated.
(§6) Female athymic BALB/c nude mice were purchased from The Jackson Laboratory (Bar Harbor, Me.). The mice were housed in laminar flow cabinets under specific pathogen-free conditions and used when they were 8 weeks old.
(§7) H727 and BON-1 tumor cells were injected into the subcutis of mice as described in the Materials and Methods. MIT treatment started when tumor sizes reached around 3-4 mm in diameters. […] Moreover, the residual tumors were harvested and angiogenesis was assessed by CD31 staining.
(§8) Specifically, we injected H727 and BON-1 cells subcutaneously into nude mice. […] We also administered PBS injections to animals as controls.
(§9) H727 and BON-1 cells were injected subcutaneously into nude mice and then administered treatment to them as described in FIG. 20.

H727 cells = assay: H727 carcinoid subcutaneous xenograft
Description: as §1, §2, §3, §4, §5, §6, §7, §8, §9

BxPC3 cells = assay: Viable cell count in vitro, BxPC3; assay type: cell-based, human; settings: 100 μg/ml BVZ
Description: FIG. 14. Effects of treatment with BVZ and MIT on the growth of and gene expression in human pancreatic cancer cells in vitro. (A) BxPC3 and (B) PANC-1 cells were incubated for 1 to 5 days in a medium alone or a medium containing 100 μg/ml BVZ. The viable cells were counted every 24 hours. C, PANC-1 cells were incubated for 6 to 48 hours in a medium alone or a medium containing 100 μg/ml BVZ. Total protein lysates were harvested from the cell cultures, and the level of Sp1, EGFR, and VEGF protein expression was determined using Western blot analysis. Equal protein-sample loading was monitored by probing the same membrane filter with an anti-glyceraldehyde-3-phosphate dehydrogenase antibody (GAPDH). D and E, PANC-1 cells were treated with MIT at concentrations ranging from 0.1 to 1.2 μM for 24 and 48 hours. (D) Cytotoxicity was assessed using the MTT assay, and (E) the level of gene expression was determined using Western blot analysis. NS, nonspecific.
Effects of treatment with BVZ and MIT on the growth of and gene expression in human pancreatic cancer cells. To further determine whether treatment with BVZ directly impacts gene expression in pancreatic cancer cells, we incubated PANC-1 and BxPC3 cells in a medium alone or a medium containing 100 μg/ml BVZ for 6 to 48 hours.

[2] = tested on: Sp1, VEGF, EGFR and PDGFA expression; assay: Expression of Sp1 and downstream molecules in H727 cells in vitro (Western/Northern blot); assay type: cell-based, human; settings: 100 μg/ml BVZ, 5 days
Description: FIG. 16. […] H727 cells were incubated in medium or medium containing 0.36 μM MIT for 24 hours. mRNA was extracted for Northern blot analysis of Sp1 expression (A1). H727 and BON-1 cells were incubated in medium or medium containing 0-0.36 μM MIT for 1 to 24 hours. […] B. Chromatin was prepared from the cells and ChIP assay was performed as described in Materials and Methods.
FIG. 18. Effects of treatment with BVZ and MIT on the growth of and gene expression in human carcinoid cells in vitro. A. H727 and BON-1 cells were incubated for 5 days in a medium alone or a medium containing 25 to 100 μg/ml BVZ. The viable cells were counted. B. H727 cells were incubated for 5 days in a medium alone or a medium containing 100 μg/ml BVZ. Total protein lysates were harvested from the cell cultures, and the level of Sp1 and VEGF protein expression was determined using Western blot analysis. Equal protein-sample loading was monitored by probing the same membrane filter with an anti-GAPDH. C. […] Cytotoxicity was assessed using the MTT assay.
Western blot analysis. […] Equal protein-sample loading was monitored by probing the same membrane filter with an antibody against glyceraldehyde-3-phosphate dehydrogenase (GAPDH) (21). The probe proteins were detected using the Amersham enhanced chemiluminescence system according to the manufacturer's instructions. […]

PANC-1 cells = assay: PANC-1 subcutaneous xenograft, tumor volume and body weight; assay type: in vivo, nude mice; settings: BVZ 25 μg, MIT 0.10 mg/kg, or B+M
Description: FIG. 11. Synergistic antitumor effects of treatment with BVZ and MIT in xenograft models of human pancreatic cancer. […] C, representative tumor sizes in each group of BxPC3 model mice.
Next, we performed experiments using both BxPC3 and PANC-1 tumor cell models in which we administered PBS, BVZ (25 μg), MIT (0.10 mg/kg), or B+M to a group of nude mice.

**Q.** For bevacizumab [BVZ], which “human neuroendocrine tumor growth” value [1] is on record?
**A.** suppressed human neuroendocrine tumor growth in nude mice in a dose-dependent manner

**Q.** And the “antitumor activity at low dose” value (H727 cells; BVZ 25 μg, MIT 0.10 mg/kg, alone or combined, i.p. twice a week)?
**A.** marginal antitumor activity

**Q.** And the body weight (H727 cells; BVZ alone)?
**A.** no discernable effects on body weight

**Q.** And the animal survival (H727 cells; compared with PBS, 160 days)?
**A.** slightly increased survival rate

**Q.** And the “cell growth in vitro” value (BxPC3 cells)?
**A.** did not affect the growth

**Q.** And the “expression of Sp1 and VEGF” value [2]?
**A.** did not affect the expression of Sp1 or its major downstream molecule, VEGF

**Q.** And the “antitumor activity at low dose” value (PANC-1 cells)?
**A.** marginal antitumor activity
